Laboratory results taken from publication PMC11026381, “Late-stage meta-C–H alkylation of pharmaceuticals to modulate biological properties and expedite molecular optimisation in a single step” (Nature Communications, 2024).
≈ marks a conversion by molar mass, not a printed value.

Assays:
[1] = Fraction unbound in human plasma (Prot. Bind.), equilibrium dialysis; type: in vitro ADME; conditions: 5 μM, dialysis at 37 °C for 18 hours
Description: (§1) 5. Pharmaceutically relevant properties modulation
(§2) Product analogues 5e, 6a-6k obtained after late-stage meta-C–H alkylation of the pharmaceutically active compound Emapunil (4e) were subjected to a range of fundamental in vitro drug discovery assays. To prevent hydrolysis of ester groups present on these analogues during biological testing (in order to compare the clearance and metabolic stability between these drug derivatives), their corresponding free acids 5e’, 6a’-6k’ were synthesised (see page S54) and subjected to similar assays.
(§3) The experimental methods used for these physicochemical & drug metabolism and pharmacokinetics (DMPK) assays are described below 11. […]
Fraction unbound in human plasma (Prot. Bind.)
Equilibrium dialysis of compounds was used to assess the fraction unbound in human plasma. Stock solutions of compounds dissolved in DMSO were pooled into cassettes with up to 10 compounds in each cassette with a concentration of 1 mM. The pooled stock solutions were diluted in plasma to a compound concentration of 5 μM. Warfarin, propranolol and metoprolol were used as reference compounds in each run. The equilibrium dialysis device (RED, Thermo Fischer Scientific Inc., Rockford, USA) was used for dialysis against phosphate buffer (pH 7.4) at 37 °C for 18 hours. Calibration curves ranging from 0.001 to 7 μM were made using aliquots of the 7 μM spiked plasma pools that were transferred to a new plate followed by serial dilutions with blank plasma. Calibration curve samples and dialysis samples were precipitated with MeCN and after centrifugation, supernatants were removed and analysed using LC-MS/MS (Waters Xevo-TQS). Fraction unbound in the incubation was calculated as the concentration in the media buffer sample divided by the concentration in the plasma sample. The fraction unbound was reported as the median value.

[2] = Thermodynamic solubility, shake-flask approach, phosphate buffer pH 7.4; type: physicochemical; conditions: pH 7.4, phosphate buffer 0.1 M, 20 °C, n = 1
Description: as §1, §2
The experimental methods used for these physicochemical & drug metabolism and pharmacokinetics (DMPK) assays are described below 11.
This method measures the thermodynamic solubility of compounds based on a shake-flask approach12.
The nature of the solid state was unknown in these experiments and may be subject to variability. The compounds were dissolved in DMSO (30 μL, 10 mM) in glass vials, and were dried using a Genevac vacuum evaporator (Genevac Ltd, Ipswich, UK). When the samples were dry, 300 μL of phosphate buffer (0.1 M, pH 7.4) was added to the glass vials. The vials were put on an Edmund Bühler shaker (Edmund Bühler GmbH, Hechingen, Germany) at 20 °C for 18 hours. Samples were filtered through a Whatman GF/B 96-well filter and 20 μL of filtrated samples were transferred to separate wells in a plate containing 180 μL MeCN/H2O (1:1). Standards were prepared by diluting the 10 mM compound solutions with MeCN/H2O (1:1) to 200 μM. Three further dilution steps of 10 times were applied to both the samples and standards and they were all analy sed by LC-MS/MS (Waters Xevo-TQS). Solubility was determined using the integrated peak areas of the samples in the linear MS response range. […]

[3] = Metabolic stability in human liver microsomes (CLint HLM); type: in vitro ADME; conditions: 1 mg/mL microsomal protein, 1 mM NADPH, 37 °C; for microsomal CLint at 1 μM: both sexes, human, liver microsomes, pH 7.4, measured on the labelled compound itself, n = 1, read-out: CLint HLM (intrinsic clearance in human liver microsomes); for CLint HLM (intrinsic clearance in human liver microsomes): measured on the labelled compound itself, 1 μM, n = 1
Protocol: Metabolic stability in human liver microsomes (CLint HLM)
Human liver microsomes were defrosted on ice and diluted to 1 mg/mL of microsomal protein in phosphate buffer (0.1 M, pH 7.4). Compounds at 1 μM were incubated with the liver microsome suspensions and 1 mM NADPH at 37 °C in a 96-well plate. At 0.5, 5, 10, 15, 20 and 30 min, aliquots of 30 μL were transferred to a 96-well plate containing 120 μL MeCN. This plate was centrifuged for 20 min and supernatant was removed and diluted with H2O (1:1) before analysis by LC-MS/MS (Waters Xevo-TQS). Peak areas were determined from extracted ion chromatograms, and the in vitro intrinsic clearance (in vitro CLint, in μL/min/mg microsomal protein) of parent compound was calculated from the slope in the regression analysis of the natural logarithm of parent concentration vs. time curve.
Human Liver Microsomes (InVitroCYPTM 150-Donor, Mixed Gender) were harvested and supplied by BioIVT (Product No. X008070, Lot No. QQY). […]
(§4) The modulation of pharmaceutically relevant properties on meta-C–H alkylation is shown below in Supplementary Fig. 68, with a selection of physicochemical and DMPK data including solubility , LogD, human plasma protein binding (Prot. Bind.) and intrinsic clearance (CLint) in human liver microsomes (HLM) or rat hepatocytes (Rat Hep.) .

[4] = Metabolic stability in male Han Wistar rat hepatocytes (CLint Rat Hep.); type: in vitro ADME; conditions: measured on the labelled compound itself, 1 μM, 10^6 viable cells/mL, 37 °C, n = 1
Protocol: Metabolic stability in male Han Wistar rat hepatocytes (CLint Rat Hep.) Hepatocyte metabolic stability was determined in accordance with the method described by Jacobson et al14. Cryopreserved hepatocytes at a concentration of 10 6 viable cells/mL were used. After thawing, hepatocytes were incubated for 10 min to warm to 37 °C, and compounds dissolved in MeCN were […]
incubation system was mixed and 20 μL aliquots were transferred at each time point to wells in a separate plate filled with 80 μL MeCN to stop the reaction. The quenching plate was then vortexed followed by centrifugation, and supernatants were analysed by LC-MS/MS (Waters Xevo-TQS). Peak areas were determined from extracted ion chromatograms, and the in vitro intrinsic clearance (in vitro CLint, in μL/min/10^6 cells) of parent compound was calculated from the slope in the regression analysis of the natural logarithm of parent concentration vs. time curve. Rat Hepatocytes (Cryosuspension, Male Wistar Hannover ) were harvested and s upplied by BioIVT (Product No. M00065, Lot No. DVO).
as §4

[5] = Octanol/water partitioning (LogD), shake-flask method; type: physicochemical; conditions: n = 1
Description: as §1, §2, §3
Octanol/water partitioning (LogD)
Partitioning of compounds between 1 -octanol and phosphate buffer (0.1 M, pH 7.4) at 20 °C were determined using a modified version of the shake -flask method described by Leo et al13. Compounds were dissolved in a 96 -well plate, in 400 μL octanol, and 400 μL of buffer was added to each well. The plate was vigorously stirred for 5 min and then put on an Edmund Bühler shaker (Edmund Bühler GmbH, Hechingen, Germany) at 20 °C for 18 hours. Aliquots of 5 μL octanol were transferred and diluted with 495 μL MeCN/H2O (1:1) and, to avoid contamination of the buffer, the rest of the octanol was removed before 150 μL of buffer samples were transferred. Octanol and buffer samples were diluted with MeCN/H2O (1:1) in four steps of 10 times to yield octanol samples diluted 10 2 to 106 times and buffer samples diluted 1 to 104 times. LC-MS/MS (Waters Xevo-TQS) was used for analysis, and distribution coefficient at pH 7.4 (LogD7.4) was calculated from the integrated peak areas of the samples in the linear MS response range. LogD7.4 results were reported as median values. […]

[6] = aqueous buffer, thermodynamic from solid
[7] = 1-octanol/phosphate buffer, pH 7.4, 1-octanol / phosphate buffer pH 7.4, 20 °C
[8] = 1-octanol / phosphate buffer pH 7.4, 20 °C

Prot. Bind. (% free), human plasma protein binding ([1]; n = 1) [% free] | solubility at 18 h [2, 6] [µM] | microsomal CLint at 1 μM [3] [µL/min/mg] | logD [5, 7] | Prot. Bind. (% free), human plasma protein binding ([1]; n = 1, listed as 5e’) [% free] | solubility at 18 h [2] [µM] | CLint HLM (intrinsic clearance in human liver microsomes) [3] [µL/min/mg] | LogD (octanol) [5, 8] | Prot. Bind. (% free), human plasma protein binding ([1]; n = 1, listed as 6b’) [% free] | Prot. Bind. (% free), human plasma protein binding ([1]; n = 1, listed as 6e’) [% free] | SMILES | CLint Rat Hep. (intrinsic clearance in rat hepatocytes) [4] [μL/min/10^6] | CLint Rat Hep. (intrinsic clearance in rat hepatocytes) ([4]; listed as 5e’) [μL/min/10^6] | CLint Rat Hep. (intrinsic clearance in rat hepatocytes) ([4]; listed as 6a’) [μL/min/10^6] | CLint Rat Hep. (intrinsic clearance in rat hepatocytes) ([4]; listed as 6b’) [μL/min/10^6] | CLint Rat Hep. (intrinsic clearance in rat hepatocytes) ([4]; listed as 6c’) [μL/min/10^6] | CLint Rat Hep. (intrinsic clearance in rat hepatocytes) ([4]; listed as 6e’) [μL/min/10^6] | CLint Rat Hep. (intrinsic clearance in rat hepatocytes) ([4]; listed as 6f’) [μL/min/10^6] | Prot. Bind. (% free), human plasma protein binding ([1]; n = 1, listed as 6g’) [% free] | CLint Rat Hep. (intrinsic clearance in rat hepatocytes) ([4]; listed as 6g’) [μL/min/10^6] | logD [5, 8]
0.8 | 6 (≈ 2.41 µg/mL) | 218 | 3.2 |  |  |  |  |  |  | CCN(Cc1ccccc1)C(=O)Cn1c(=O)n(C)c2cnc(-c3ccccc3)nc21 [4e, emapunil, reference compound] | 164 |  |  |  |  |  |  |  |  | 
0.4 | 17 (≈ 8.97 µg/mL) | > 300 | 4.4 | 2.0 | > 1000 | 5.5 | 0.7 |  |  | CCOC(=O)C1(c2cccc(-c3ncc4c(n3)n(CC(=O)N(CC)Cc3ccccc3)c(=O)n4C)c2)CCC1 [5e] | > 300 | 15.9 |  |  |  |  |  |  |  | 
12.0 | 41 (≈ 20 µg/mL) | > 300 | 3.3 |  | 924 (≈ 451 µg/mL) | < 3.0 | -0.5 |  |  | CCOC(=O)Cc1cccc(-c2ncc3c(n2)n(CC(=O)N(CC)Cc2ccccc2)c(=O)n3C)c1 [6a] | > 300 |  | 10.5 |  |  |  |  |  |  | 
0.8 | 8 (≈ 4.12 µg/mL) | > 300 | 4.2 |  | > 1000 | 11.1 | 0.5 | 3.0 |  | CCOC(=O)C(C)(C)c1cccc(-c2ncc3c(n2)n(CC(=O)N(CC)Cc2ccccc2)c(=O)n3C)c1 [6b] | > 300 |  |  | 10.3 |  |  |  |  |  | 
6.6 | 51 (≈ 25.5 µg/mL) | > 300 | 3.3 |  | 965 (≈ 482 µg/mL) | < 3.0 | 0.3 |  |  | CCN(Cc1ccccc1)C(=O)Cn1c(=O)n(C)c2cnc(-c3cccc(C4(C(=O)OC)CC4)c3)nc21 [6c] | > 300 |  |  |  | 36.2 |  |  |  |  | 
0.5 | 50 (≈ 24 µg/mL) | > 300 | 3.9 |  |  |  |  |  |  | CCN(Cc1ccccc1)C(=O)Cn1c(=O)n(C)c2cnc(-c3cccc(C4(C#N)CCC4)c3)nc21 [6d] | > 300 |  |  |  |  |  |  |  |  | 
0.4 | 36 (≈ 19 µg/mL) | > 300 | 4.3 |  | 864 (≈ 456 µg/mL) | < 3.0 | 1.4 |  | 0.7 | CCN(Cc1ccccc1)C(=O)Cn1c(=O)n(C)c2cnc(-c3cccc(C4(C(=O)OC)CCCC4)c3)nc21 [6e] | > 300 |  |  |  |  | 51.0 |  |  |  | 
3.3 | 12 (≈ 6.28 µg/mL) | > 300 | 4.3 |  | 852 (≈ 446 µg/mL) | 4.0 | -0.4 |  |  | CCOC(=O)C(F)(F)c1cccc(-c2ncc3c(n2)n(CC(=O)N(CC)Cc2ccccc2)c(=O)n3C)c1 [6f] | > 300 |  |  |  |  |  | 6.8 |  |  | 

SMILES | Prot. Bind. (% free), human plasma protein binding ([1]; n = 1) [% free] | solubility at 18 h [2, 6] [µM] | microsomal CLint at 1 μM [3] [µL/min/mg] | logD [5, 7] | Prot. Bind. (% free), human plasma protein binding ([1]; n = 1, listed as 5e’) [% free] | solubility at 18 h [2] [µM] | CLint HLM (intrinsic clearance in human liver microsomes) [3] [µL/min/mg] | LogD (octanol) [5, 8] | Prot. Bind. (% free), human plasma protein binding ([1]; n = 1, listed as 6b’) [% free] | Prot. Bind. (% free), human plasma protein binding ([1]; n = 1, listed as 6e’) [% free] | CLint Rat Hep. (intrinsic clearance in rat hepatocytes) [4] [μL/min/10^6] | CLint Rat Hep. (intrinsic clearance in rat hepatocytes) ([4]; listed as 5e’) [μL/min/10^6] | CLint Rat Hep. (intrinsic clearance in rat hepatocytes) ([4]; listed as 6a’) [μL/min/10^6] | CLint Rat Hep. (intrinsic clearance in rat hepatocytes) ([4]; listed as 6b’) [μL/min/10^6] | CLint Rat Hep. (intrinsic clearance in rat hepatocytes) ([4]; listed as 6c’) [μL/min/10^6] | CLint Rat Hep. (intrinsic clearance in rat hepatocytes) ([4]; listed as 6e’) [μL/min/10^6] | CLint Rat Hep. (intrinsic clearance in rat hepatocytes) ([4]; listed as 6f’) [μL/min/10^6] | Prot. Bind. (% free), human plasma protein binding ([1]; n = 1, listed as 6g’) [% free] | CLint Rat Hep. (intrinsic clearance in rat hepatocytes) ([4]; listed as 6g’) [μL/min/10^6] | logD [5, 8]
CCOP(=O)(OCC)C(F)(F)c1cccc(-c2ncc3c(n2)n(CC(=O)N(CC)Cc2ccccc2)c(=O)n3C)c1 [6g] | 2.0 | 46 (≈ 27 µg/mL) | > 300 |  |  | > 1000 | < 3.0 | -0.8 |  |  | > 300 |  |  |  |  |  |  | 3.7 | 4.2 | 4.4
